Values quoted from earlier work as cited in patent US8530463B2, “Multimodal particulate formulations” (Hale Biopharma Ventures LLC, priority 2007, dated 2013).

Cc1ncc2n1-c1ccc(Cl)cc1C(c1ccccc1F)=NC2 [Midazolam, 8-chloro-6-(2-fluorophenyl)-1-methyl-4H-imidazo[1,5-a]benzodiazepine]
solubility in most aqueous solutions (neutral pH (e.g. about 6 to 8)): relatively insoluble
solubility in water (pH lower than about 4): soluble
